The source of these data is ChEMBL document CHEMBL6120945, “Peptidomimetic Analogues Act as Effective Inhibitors against SARS-CoV-2 by Blocking the Function of Cathepsin L” (J Med Chem, 2024).

Calls of active or inactive are those of the source. The calls are words filed in the database; no cut-off is given here.

Data set [1] deals with SARS-CoV-2. The data set can be described thus: microbe, parasite or virus in culture. The settings on record: Severe acute respiratory syndrome coronavirus 2, WIV04, Vero C1008.
Description: Antiviral activity against SARS-CoV-2 WIV04 infected in African green monkey Vero E6 pre-infected with cells for 1 hr followed by compound treatment and measured after 24 hrs by qRT-PCR analysis
Data set [2] is described as follows: Inhibition of human recombinant Cathepsin L-like protease using Z-FR-AMC as substrate at 10 uM preincubated for 30 mins followed by substrate addition and measured after 1.5 hrs by […].
Data set [3] is described as follows: Cytotoxicity against african green monkey Vero E6 cells assessed as cell viability incubated for 48 hrs by CCK-8 assay. The settings on record: chlorocebus sabaeus. Format: toxicity, cell-based, Vero C1008. Background: Tetrazolium assays rely on reduction of a dye to a coloured formazan, in cell work by metabolically active cells.
The test system of data set [4] is Vero E6. The data set can be described thus: Binding affinity to Cathepsin L-like protease in african green monkey Vero E6 cells incubated for 2 hrs by mass spectrometric analysis. It is filed as cell-based. The note with it: Chlorocebus aethiops.
Data set [5] can be described thus: Inhibition of human recombinant Cathepsin L-like protease using Z-FR-AMC as substrate preincubated for 30 mins followed by substrate addition and measured after 1.5 hrs by fluorescence based analysis.
Data set [6] can be described thus: Inhibition of recombinant Cathepsin L-like protease in african green monkey Vero E6 cells incubated for 2 hrs by pull down assay. It is filed as cell-based, Chlorocebus aethiops.
Data set [7] deals with Vero E6. The data set can be described thus: Binding affinity to Cathepsin L-like protease in african green monkey Vero E6 cells incubated for 2 hrs by Western blot analysis. Format: cell-based. The note with it: Chlorocebus aethiops. In general terms: Immunoblotting shows a protein as a band on a membrane.
Data set [8] addresses Replicase polyprotein 1ab (Severe acute respiratory syndrome coronavirus 2, UniProt P0DTD1). The data set can be described thus: Inhibition of recombinant SARS-CoV-2 3CLpro using MCA-AVLQSGFR-Lys(Dnp)-Lys-NH2 as substrate incubated for 1.5 hrs by fluorescence based analysis.
Data set [9] deals with T1, Cathepsin B (Homo sapiens, UniProt P07858). Put plainly: Inhibition of Cathepsin B (unknown origin) at 10 uM relative to control.
In data set [10] the target is Chymotrypsin (Homo sapiens) (UniProt Q99895+P17538+P40313+Q6GPI1). Put plainly: Inhibition of human Chymotrypsin at 10 uM relative to control. It is filed as protein assay.
Data set [11] relates to SARS-CoV-2. It is filed as functional, organism-based. The settings on record: Severe acute respiratory syndrome coronavirus 2; Vero E6; time 12.0 hrs.
Data set [12] has as its target Trypsin (Homo sapiens) (UniProt P07477+P07478+P35030). Put plainly: Inhibition of human trypsin at 10 uM relative to control. It is filed as protein assay.
Data set [13] concerns the target T2, Cathepsin L2 (Homo sapiens) (UniProt O60911).
T2 sequence (whole entry): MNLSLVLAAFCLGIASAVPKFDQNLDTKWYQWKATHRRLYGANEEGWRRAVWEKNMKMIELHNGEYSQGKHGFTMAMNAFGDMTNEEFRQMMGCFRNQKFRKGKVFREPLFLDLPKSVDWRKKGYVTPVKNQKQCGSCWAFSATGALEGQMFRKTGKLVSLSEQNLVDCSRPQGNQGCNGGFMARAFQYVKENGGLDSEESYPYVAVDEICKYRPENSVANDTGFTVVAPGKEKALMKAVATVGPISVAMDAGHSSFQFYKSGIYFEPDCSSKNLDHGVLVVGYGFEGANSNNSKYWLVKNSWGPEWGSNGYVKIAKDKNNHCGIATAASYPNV
The data set can be described thus: Inhibition of Cathepsin V (unknown origin) at 10 uM relative to control.

Data set [14] deals with Replicase polyprotein 1ab (Severe acute respiratory syndrome coronavirus 2) (UniProt P0DTD1). Put plainly: Inhibition of recombinant SARS-CoV-2 3CLpro using MCA-AVLQSGFR-Lys(Dnp)-Lys-NH2 as substrate at 10 uM incubated for 1.5 hrs by fluorescence based analysis.
A short description of data set [15]: Binding affinity to human recombinant Cathepsin L-like protease using Z-FR-AMC as substrate assessed as inhibition constant preincubated for 30 mins followed by substrate addition and measured after 1 hr by Morrison equation based analysis.
Data set [16] deals with Vero E6. Put plainly: Inhibition of Procathepsin L in african green monkey Vero E6 cells by LC-MS/MS analysis. The note with it: Chlorocebus aethiops. Format: cell-based.
Data set [17] is filed under the species Homo sapiens. Put plainly: Inhibition of human recombinant Cathepsin L-like protease using Z-FR-AMC as substrate at 10 uM preincubated for 30 mins followed by substrate addition and measured after 1.5 hrs by fluorescence based analysis. The settings on record: time 2.0 hrs.
For data set [18], the target named is Replicase polyprotein 1ab (Severe acute respiratory syndrome coronavirus 2) (UniProt P0DTD1). Put plainly: Inhibition of SARS-CoV2 PLpro using Z-RLRGG-AMC as substrate at 10 uM preincubated for 30 mins followed by substrate addition and measured after 1.5 hrs by fluorescence based analysis. The settings on record: time 2.0 hrs.
Data set [19] addresses Transmembrane protease serine 2 (Homo sapiens) (UniProt O15393). The data set can be described thus: Inhibition of human recombinant TMPRSS2 using Boc-QAR-AMC as substrate at 10 uM preincubated for 30 mins followed by substrate addition and measured after 1.5 hrs by fluorescence based analysis relative to control. The settings on record: time 2.0 hrs.
The subject of data set [20] is Severe acute respiratory syndrome coronavirus 2. The data set can be described thus: Inhibition of recombinant SARS-Cov-2 Cathepsin L-like protease by LC-MS/MS analysis.
Data set [21] addresses T3, Cathepsin L2 (Homo sapiens, UniProt O60911).
T3 sequence (O60911 whole entry): T2 sequence (whole entry)
The data set can be described thus: Binding affinity to Cathepsin V (unknown origin) assessed as inhibition constant by Morrison equation based analysis.

Data set [22] addresses T1, Cathepsin B. Put plainly: Binding affinity to Cathepsin B (unknown origin) assessed as inhibition constant by Morrison equation based analysis.
Data set [23] deals with Transmembrane protease serine 2 (Homo sapiens) (UniProt O15393). The data set can be described thus: Inhibition of human recombinant TMPRSS2 using Boc-QAR-AMC as substrate at 10 uM preincubated for 30 mins followed by substrate addition and measured after 1.5 hrs by fluorescence based analysis. The note with it: time 2.0 hrs.
The species entered for data set [24] is Homo sapiens. Put plainly: Inhibition of human recombinant Cathepsin L-like protease using Z-FR-AMC as substrate at 1 uM preincubated for 30 mins followed by substrate addition and measured after 1.5 hrs by fluorescence based analysis. The settings on record: time 2.0 hrs.

Sequence of Transmembrane protease serine 2 (Homo sapiens) (O15393 1-255 limits assumed): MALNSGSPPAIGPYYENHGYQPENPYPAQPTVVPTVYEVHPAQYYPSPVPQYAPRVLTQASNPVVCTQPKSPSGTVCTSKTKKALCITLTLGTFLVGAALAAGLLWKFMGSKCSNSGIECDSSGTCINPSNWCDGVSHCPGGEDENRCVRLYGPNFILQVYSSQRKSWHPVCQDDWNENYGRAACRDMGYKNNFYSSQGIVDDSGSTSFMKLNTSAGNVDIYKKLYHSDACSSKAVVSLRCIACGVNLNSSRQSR
Sequence of Transmembrane protease serine 2 (Homo sapiens) (O15393 256-492 limits assumed): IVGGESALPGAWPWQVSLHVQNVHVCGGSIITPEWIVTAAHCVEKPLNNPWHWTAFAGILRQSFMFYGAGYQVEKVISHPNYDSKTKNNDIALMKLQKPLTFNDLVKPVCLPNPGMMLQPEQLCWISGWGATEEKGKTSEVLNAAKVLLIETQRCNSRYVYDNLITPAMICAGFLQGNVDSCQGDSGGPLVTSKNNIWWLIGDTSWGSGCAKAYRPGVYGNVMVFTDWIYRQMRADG

`O=C(N[C@@H](Cc1ccccc1)C(=O)N[C@@H](Cc1ccccc1)C(=O)CCl)c1cccc2ccccc12` had an EC50 in data set [1] of 400 nM. Also, in data set [2], the IC50 was 0.41 nM.

For `CC(C)C[C@H](NC(=O)/C=C/c1ccccc1)C(=O)N[C@H](C=O)C[C@@H]1CCNC1=O`, in [3], the CC50 at 48 h is above 100000 nM.

As to `C#CCCCCOc1ccc(/C=C/C(=O)N[C@@H](CC(C)C)C(=O)N[C@H](C=O)Cc2ccccc2)cc1`, the outcome in [4] and in data set [7] was Active. For the same molecule, in data set [5], the IC50 came out at 40.8 nM. Besides, in data set [6], the EC50 is 6210 nM.

For `O=C(N[C@@H](Cc1ccccc1)C(=O)N[C@@H](Cc1ccccc1)C(=O)CCl)c1ccc2[nH]ccc2c1`, the IC50 in data set [2] is 0.8 nM.

In turn, `O=C(N[C@@H](Cc1ccc(F)cc1)C(=O)N[C@@H](Cc1ccccc1)C(=O)CCl)c1ccc2[nH]ccc2c1` yielded an EC50 in data set [1] of 410 nM. Moreover, in data set [2], the IC50 stood at 0.56 nM.

As for `C#CCCCCOc1ccc(/C=C/C(=O)N[C@@H](CC(C)C)C(=O)N[C@@H](Cc2ccccc2)C(=O)OC)cc1`, in [8], the IC50 was above 10000 nM. This molecule also yielded an EC50 in data set [1] above 100000 nM. Further, the CC50 at 48 h in data set [3] is above 100000 nM.

As for `O=C(N[C@@H](Cc1ccc(F)cc1)C(=O)N[C@@H](Cc1ccccc1)C(=O)CCl)c1cccc2ccccc12`, the inhibition entry in data set [9], in data set [10], in [12] and in data set [13] was “inactive” throughout. In data set [1], this molecule gave an EC50 of 260 nM. For the same molecule, the outcome in data set [11] was Active. In addition, the IC50 in data set [2] was determined as 0.27 nM.

On to `CC(C)C[C@H](NC(=O)/C=C/c1ccccc1)C(=O)N[C@H](C=O)C[C@@H]1CCCNC1=O`, for which a half-maximal response in [1] (EC50) required 1510 nM. Further, the CC50 at 48 h in [3] was above 100000 nM.

On to `CC(C)C[C@H](NC(=O)/C=C/c1ccccc1)C(=O)N[C@H](C=O)Cc1ccccc1`, for which the inhibition entry in [14], in [9], in [18], in data set [10], in data set [12] and in data set [13] was “inactive” in each case. For the same molecule, the inhibition result in data set [23] was “inactive”. The values for the Ki in [15], in [21] and in data set [22] were 1.31 nM, 2.25 nM and 40.1 nM, respectively. In addition, the IC50 in data set [5] was 22.6 nM; in data set [8] it was above 10000 nM. Moreover, the inhibition entry in data set [16], in [17] and in data set [20] was “Active” in each case. In data set [1], this molecule came in with an EC50 of 310 nM. The 50% cytotoxic concentration (CC50) at 48 h in data set [3] was above 100000 nM. The inhibition in [19] came to 100%. Also, the outcome in data set [11] was Active.

Turning to `CC(C)C[C@@H](NC(=O)/C=C/c1ccccc1)C(=O)N[C@H](C=O)Cc1ccccc1`, the figures for the IC50 in data set [5] and in data set [8] were above 1000 nM and above 10000 nM, respectively. Also, in [24], the inhibition result is “inactive”.

`COC(=O)[C@H](Cc1ccccc1)NC(=O)[C@H](CC(C)C)NC(=O)/C=C/c1ccccc1`: the IC50 in [8] was above 10000 nM. Besides, the EC50 in [1] is above 100000 nM. The CC50 at 48 h in [3] was above 100000 nM.

For the molecule `O=C(N[C@@H](Cc1cccc(F)c1)C(=O)N[C@@H](Cc1ccccc1)C(=O)CCl)c1ccc2[nH]ccc2c1`, the response in [1] was half-maximal at 1750 nM (EC50). In addition, the IC50 in data set [2] amounted to 0.72 nM.

For the molecule `O=C(N[C@@H](Cc1cccc(F)c1)C(=O)N[C@@H](Cc1ccccc1)C(=O)CCl)c1cccc2ccccc12`, the IC50 in data set [2] is 1.34 nM.

Take `CSCC[C@@H](C=O)NC(=O)[C@H](CC(C)C)NC(=O)/C=C/c1ccccc1`: the IC50 in data set [5] was 29.4 nM; in data set [8], above 10000 nM.

`CC(C)C[C@H](NC(=O)c1ccc([N+](=O)[O-])cc1)C(=O)N[C@H](C=O)Cc1ccccc1`: the IC50 in data set [5] is 8.19 nM; in data set [8] it was above 10000 nM.

As to `CC(C)C[C@H](NC(=O)/C=C/c1ccccc1)C(=O)N[C@H](C=O)Cc1ccc(C(F)(F)F)cc1`, the IC50 in [5] is 253 nM; in data set [8] it was above 10000 nM.

Consider `CC(C)C[C@H](NC(=O)/C=C/c1ccccc1)C(=O)N[C@H](C=O)Cc1ccccc1Cl`, for which the IC50 is 58 nM in data set [5] and above 10000 nM in data set [8].

For the molecule `CCC(=O)[C@H](Cc1ccccc1)NC(=O)[C@H](CC(C)C)NC(=O)/C=C/c1ccccc1`, the figures for the IC50 in data set [5] and in data set [8] were above 1000 nM and above 10000 nM, respectively.

Take `C=CC(=O)[C@H](Cc1ccccc1)NC(=O)[C@H](CC(C)C)NC(=O)/C=C/c1ccccc1`: the IC50 was above 1000 nM in [5] and above 10000 nM in data set [8].

Turning to `CC(C)C[C@H](NC(=O)C1CCOCC1)C(=O)N[C@H](C=O)Cc1ccccc1`, the IC50 was 20.2 nM in [5] and above 10000 nM in data set [8].

Turning to `CC(C)C[C@H](NC(=O)c1cc2ccccc2[nH]1)C(=O)N[C@H](C=O)Cc1ccccc1`, the IC50 in data set [5] is 10.1 nM; in [8] it was above 10000 nM.

For the molecule `COc1ccc(C[C@@H](C=O)NC(=O)[C@H](CC(C)C)NC(=O)/C=C/c2ccccc2)cc1`, the IC50 is 131 nM in [5] and above 10000 nM in data set [8].

Consider `CC(C)C[C@H](NC(=O)/C=C/c1cccc(F)c1)C(=O)N[C@H](C=O)Cc1ccccc1`, for which the IC50 in data set [5] was 46.2 nM; in data set [8], above 10000 nM.

Consider `CC(C)C[C@H](NC(=O)c1ccc(F)cc1)C(=O)N[C@H](C=O)Cc1ccccc1`, for which the IC50 in data set [5] was 9.85 nM; in [8], above 10000 nM.

On to `CC(C)C[C@H](NC(=O)/C=C/c1ccccc1)C(=O)N[C@H](C=O)Cc1ccccc1F`, for which the IC50 in data set [5] is 23.4 nM; in data set [8], above 10000 nM.

Take `CC(C)C[C@H](NC(=O)C1CCC(F)(F)CC1)C(=O)N[C@H](C=O)Cc1ccccc1`: the IC50 in data set [5] is 6.29 nM; in data set [8], above 10000 nM.

As usually defined, the EC50 is the concentration that produces a half-maximal response. The IC50 is the midpoint of a concentration-inhibition curve. As a reminder, the CC50 is the concentration at which the toxic effect on the cells reaches its halfway point. One may read the inhibition as the drop in the measured response relative to a control, in per cent. One may read the Ki as a measure of affinity in units of concentration, obtained from inhibition or displacement.
